The values that follow come from BindingDB's records for doi:10.1021/jm970389+ (Abbott Laboratories, 1998).

As usually defined, the Ki is the equilibrium dissociation constant of an inhibitor or competing ligand from its target. A high value points to lower affinity.

Structures are written as SMILES.

The first assay is described as follows: Binding potency against Platelet activating factor (PAF) receptor using [3H]C18-PAF as radioligand on rabbit platelet membranes.
With `Cc1nc2cnccc2n1Cc1ccc(C(=O)c2c[nH]c3c(OCc4ccccc4)cccc23)cc1` [(7-Benzyloxy-1H-indol-3-yl)-[4-(2-methyl-imidazo[4,5-c]pyridin-1-ylmethyl)-phenyl]-methanone], the affinity, expressed as Ki, was 12 nM. Same read-out and setting: to `Cc1nc2cnccc2n1Cc1ccc(C(=O)c2cn(C(=O)N(C)C)c3cccc(OC(=O)N(C)C)c23)cc1F` [Dimethyl-carbamic acid 1-dimethylcarbamoyl-3-[3-fluoro-4-(2-methyl-imidazo[4,5-c]pyridin-1-ylmethyl)-benzoyl]-1H-indol-4-yl ester] belongs 31 nM; to `Cc1nc2cnccc2n1Cc1ccc(C(=O)c2cn(C(=O)N(C)C)c3cccc(OC(=O)N(C)C)c23)cc1` [Dimethyl-carbamic acid 1-dimethylcarbamoyl-3-[4-(2-methyl-imidazo[4,5-c]pyridin-1-ylmethyl)-benzoyl]-1H-indol-4-yl ester], 3.6 nM; to `Cc1[nH]c2ccccc2c1C(=O)c1ccc(Cn2c(C)nc3cnccc32)cc1` [[4-(2-Methyl-imidazo[4,5-c]pyridin-1-ylmethyl)-phenyl]-(2-methyl-1H-indol-3-yl)-methanone], 48 nM. On the same count and under the same terms, to `Cc1nc2cnccc2n1Cc1ccc(C(=O)c2c[nH]c3cc(-c4ccc(F)cc4)ccc23)cc1` [[6-(4-Fluoro-phenyl)-1H-indol-3-yl]-[4-(2-methyl-imidazo[4,5-c]pyridin-1-ylmethyl)-phenyl]-methanone] belongs 75 nM.

A short description of another assay: The compound was evaluated for its binding affinity against PAF receptor in rabbit platelet.
Consider `CC(=O)OC[n+]1cccc([C@H]2SCc3c(C(=O)c4cn(C(=O)N(C)C)c5cc(-c6ccc(F)cc6)ccc45)ccn32)c1` [1-Acetoxymethyl-3-{(R)-7-[1-dimethylcarbamoyl-6-(4-fluoro-phenyl)-1H-indole-3-carbonyl]-1H-pyrrolo[1,2-c]thiazol-3-yl}-pyridinium; chloride], for which the affinity, expressed as Ki, was 3.8 nM.
